For orientation: LD50 means the dose at which mortality reaches 50%.

These results are taken from patent US3950334A, “O-Alkyl-S-alkyl-O-[6-alkyl- or 6-halo-pyridazin-(3)-yl]-(thiono)thiol-phosphoric acid esters” (priority 1973, dated 1976).

The subject of data set [1] is two-spotted spider mite (Tetranychus urticae). Nature of the data set: Tetranychus test (resistant). It counts as in vivo. The conditions noted are these: 48 h, after 2 days, resistant Tetranychus urticae on bean plants, read-out: Degree of destruction in % after 2 days; for mortality at 0.01 %: active compound concentration 0.01 %; for mortality at 0.1 %: active compound concentration 0.1 %. How it is done: Tetranychus test (resistant)
Solvent: 3 parts by weight of acetone
Emulsifier: 1 part by weight of alkylaryl polyglycol ether
To produce a suitable preparation of active compound, 1 part by weight of the active compound was mixed with the stated amount of solvent containing the stated amount of emulsifier and the concentrate was diluted with water to the desired concentration.
These bean plants were heavily infested with the two-spotted spider mite (Tetranychus urticae) in all stages of development.
After the specified periods of time, the effectiveness of the preparation of active compound was determined by counting the dead mites. The degree of destruction thus obtained was expressed as a percentage: 100% means that all the spider mites were killed, whereas 0% means that none of the spider mites were killed.
The active compounds, the concentrations of the active compounds, the evaluation times and the results can be seen from the following table: […]

A further data set is described as follows: Toxicity test/peroral. The conditions noted are these: in vivo, po; Albino rat, peroral, evaluation after 7 days. How it is done: Test animal: Albino rat (Rattus norvegicus)
To produce a suitable preparation of active compound, 3 parts by weight of active compound were mixed with 2.8 parts by weight of highly-dispersible silica and 4.2 parts by weight of talc. Suspensions which contained, in 1 ml of liquid, the amount of active compound to be applied per 100 g of animal weight, were prepared from the above active-compound concentrate, with a little added powdered vegetable gum, by grinding with water. Dosing was effected volumetrically after weighing the test animals. A steel knob-ended probe was used for oral administration. The evaluation was carried out in each case after the end of the above-mentioned time interval, calculated from the administration of the active compound.
The LD50 values (dose of active compound at which 50% of the treated animals were killed) were determined in the usual manner from the mortality figures of the doses, which were varied in geometrical progression.
The active compounds and LD50 values can be seen from the table which follows: […]

A further data set relates to warm-blooded animals. The conditions noted are these: in words; known compounds; cited from earlier work.
A further data set has as its system Musca domestica. Nature of the data set: LT100 test for Diptera. The following applies: time for 100% destruction. The data set is classed as in vivo. The protocol: Test insects: Musca domestica
2 parts by weight of active compound were dissoled in 1,000 parts by volume of solvent. The solution so obtained was diluted with further solvent to the desired lower concentrations.
2.5 ml of the solution of active compound were pipetted into a Petri dish. On the bottom of the Petri dish there was a filter paper with a diameter of about 9.5 cm. The Petri dish remained uncovered until the solvent had completely evaporated. The amount of active compound per m^2 of filter paper varied with the concentration of the solution of active compound. About 25 test insects were then placed in the Petri dish and it was covered with a glass lid.
The condition of the test insects was continuously observed. The time which was necessary for 100% destruction was determined.
The test insects, the active compounds, the concentrations of the active compounds and the times at which there was 100% destruction can be seen from the following table: […]

[2] abbreviates: active compound concentration of the solution 0.02 %.
Where [3] appears, read: active compound concentration of the solution 0.2 %.

With `CCCSP(=S)(OCC)Oc1ccc(Br)nn1` (stereo not drawn) [Compound 1, O-ethyl-S-n-propyl-O-[6-bromo-pyridazin(3)-yl]-thionothiolphosphoric acid ester], in data set [1], the mortality at 0.01 % is 100% and the mortality at 0.1 % amounted to 100%. Also, the LD50 at 168 h in the data set “Toxicity test/peroral” is 100 to 250 mg/kg.

As for `CCCSP(=S)(OCC)Oc1ccc(C)nn1` (stereo not drawn) [Compound 2], the LD50 at 168 h in “Toxicity test/peroral” is roughly 50 mg/kg.

As for `CCOP(=S)(OCC)Oc1ccc(C)nn1` [Compound B, O,O-diethyl-O-[6-methyl-pyridazin-(3)-yl]-thionophosphoric acid ester], in the data set on warm-blooded animals, the “toxicity to warm-blooded animals” value is “high toxicity to warm-blooded animals”. Moreover, in the data set with Musca domestica (setting [2]), the “LT100 in hours” value amounted to 8 h. For the same compound, in the data set with Musca domestica (setting [3]), the “LT100 in minutes (')” value turned out to be 135 min. Further, in data set [1], the mortality at 0.01 % amounted to 20% and the mortality at 0.1 % was 100%. This compound displayed an LD50 at 168 h in “Toxicity test/peroral” of 0.5 to 1 mg/kg.

As to `CCCSP(=S)(OCC)Oc1ccc(Cl)nn1` (stereo not drawn) [Compound 3], the “LT100 in minutes (')” value with Musca domestica (setting [2]) is 165 min; in the data set on Musca domestica (setting [3]) it was 55 min. In the data set “Toxicity test/peroral”, the LD50 at 168 h lay in the range of 100 to 250 mg/kg.

Regarding `CCOP(=S)(OCC)Oc1ccc(Cl)nn1` [Compound A, O,O-diethyl-O-[6-chloro-pyridazin-(3)-yl]-thionophosphoric acid ester], the “toxicity to warm-blooded animals” value in the data set on warm-blooded animals is listed as “high toxicity to warm-blooded animals”. In addition, the median lethal dose (LD50) at 168 h in the data set “Toxicity test/peroral” was roughly 5 mg/kg.
